The source of these data is US20090226392A1, “Phosphate-Binding Polymers for Oral Administration” (priority 1993, published 2009).

The experiment is described as follows: Phosphate binding test: polymer stirred in phosphate containing solution at pH 7 for 3 hours. Here is the method: Candidate polymers were tested by stirring them in a phosphate containing solution at pH 7 for 3 hours. The solution was designed to mimic the conditions present in the small intestine.
The pH was adjusted to pH 7, once at the start of the test and again at the end of the test, using either aqueous NaOH or HCl. After 3 hours the polymer was filtered off and the residual phosphate concentration in the test solution was determined spectrophotometrically. The difference between the initial phosphate concentration and the final concentration was used to determine the amount of phosphate bound to the polymer.

Turning to `[Ca+2].[Cl-].[Cl-]` [Calcium Chloride], the “Phosphate Bound” value (pH 7) stood at 4.0 meq/g.

In the case of `CC(O)C(=O)[O-].CC(O)C(=O)[O-].[Ca+2]` (centres unmarked) [Calcium Lactate], the “Phosphate Bound” value (Table 2, other materials, pH 7, 3 hours, residual solution phosphate ~5 mM) is 2.4 meq/g.
